A word on the IC50: it is the concentration needed to halve the response being measured. High values mean weaker potency in that assay, low ones greater potency in that assay.

Molecules are shown by their SMILES.

The test has as its target GTPase KRas (Homo sapiens, UniProt P01116). The test is described as follows: Inhibition of GDP bound KRAS G12V mutant (unknown origin).

Sequence of GTPase KRas (P01116 whole entry G12V): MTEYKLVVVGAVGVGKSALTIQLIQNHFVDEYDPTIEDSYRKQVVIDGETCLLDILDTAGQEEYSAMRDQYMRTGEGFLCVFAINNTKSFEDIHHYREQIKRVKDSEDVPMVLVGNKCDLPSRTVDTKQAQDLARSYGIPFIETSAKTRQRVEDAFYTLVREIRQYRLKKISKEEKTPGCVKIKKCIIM

Take `C#Cc1c(F)ccc2cc(O)cc(-c3ncc4c(N(C)[C@H]5C[C@@H]5F)nc(OCC56CCCN5CC(=C)C6)nc4c3F)c12` (stereo partly specified): the midpoint of inhibition, the IC50, lay at 0.371 nM.

Values taken from BindingDB's records for PubMed 39140043 (Usona Institute).
